Several values for one entry are separate records, joined by “and”; a condition that tells them apart may be missing. Equal entries are not always repeated. Marks after values point to notes of the source that are not given here.
Assays:
[1] = UV-visible absorbance spectroscopy, 15 μM in 90% aqueous, 10% DMSO; type: physicochemical; details: 90% aqueous 10% DMSO
Description: Compounds 21 and 7 were characterized by UV-visible spectroscopy (FIG. 15). Absorbance was measured using 15 μM solutions of each compound in a solution that was 90% aqueous, 10% DMSO. The peaks at 600 nm (light dashed line) and 675 nm (light solid line) represent the dianions of compounds 21 and 7, respectively, in NaOH (pH 12). The peaks at 590 nm (heavy dashed line) and 650 nm (heavy solid line) represent a mix of mono- and dianions of compound 21 at pH 7.4 and predominantly monoanions of compound 7 at pH 9, respectively.
Compounds 22 and 8 were characterized by UV-visible spectroscopy (FIG. 16). Absorbance was measured using 15 μM solutions of each compound in a solution that was 90% aqueous, 10% DMSO. The peaks at 610 nm (light dashed line) and 685 nm (light solid line) represent the anions of compounds 22 and 8, respectively, in NaOH (pH 12). The peaks at 605 nm (heavy dashed line) and 805 nm (heavy solid line) represent the neutral forms of compounds 22 and 8 at pH 7.4, respectively.
Compounds 20a and 15a were characterized by UV-visible spectroscopy (FIG. 17). Absorbance was measured using 15 μM solutions of each compound in a solution that was 90% aqueous, 10% DMSO. The peaks at 545 nm (light dashed line) and 595 nm (light solid line) represent the respective anions, compounds 20c and 15h, in NaOH (pH 12).
Compound 15b (free amino) was characterized by UV-visible spectroscopy (FIG. 18), and compared to C.SNARF-5 (literature, SNARF=seminaphthorhodafluor). Absorbance was measured using a 15 μM solution of compound 15b in a solution that was 90% aqueous, 10% DMSO. The peak at 535 nm (heavy line) represents the predominantly phenolic form of 15b at pH 6. The peak at 615 nm (light line) represents the phenoxide of compound 15b at in NaOH (pH12). In comparison, C.SNARF-5 produces a peak at 550 nm (anionic form) and a peak at 485 nm (neutral form) (Whitaker et al., Anal. Biochem. 1991, 194, 330-344).
Absorbance was measured using 15 μM solutions of compound 15d in a solution that was 90% aqueous, 10% DMSO. The peak at 570 nm (heavy line) represents the predominantly neutral form of 15d at pH 6. The peak at 630 nm (light line) represents the phenoxide of compound 15d in NaOH (pH 12).
Compounds 20b and 15g were characterized by UV-visible spectroscopy (FIG. 20). Absorbance was measured using 15 μM solutions of each compound in a solution that was 90% aqueous, 10% DMSO. The peaks at 540 nm (dashed line) and 570 nm (solid line) represent the cations of compounds 20b and 15g, respectively, at pH 7.4.

[2] = Fluorescence emission spectra, 15 μM in 90% aqueous, 10% DMSO; type: physicochemical
Description: Compounds 21 and 7 also were characterized by their fluorescence emission spectra. Fluorescence was measured using 15 μM solutions of each compound in a solution that was 90% aqueous, 10% DMSO. For compound 21, the longest wavelength emission observed from the dianions occurred near 680 nm at pH 9. For compound 7 (transposed), the longest wavelength emission observed from the monoanion occurred near 800 nm at pH 9.
Compounds 22 and 8 also were characterized by their fluorescence emission spectra. Fluorescence was measured using 15 μM solutions of each compound in a solution that was 90% aqueous, 10% DMSO For compound 22, the longest wavelength emission observed from the anion occurred near 690 nm at pH 9. […] Given the greater than 800 nm absorbance peak and the typically large Stokes shifts observed in this class of compounds, it is likely that the emission was beyond the working range of the instrument (>850 nm).
Compounds 20 and 15a also were characterized by their fluorescence emission spectra. Fluorescence was measured using 15 μM solutions of each compound in a solution that was 90% aqueous, 10% DMSO. For compound 20a, the longest wavelength emission observed from its corresponding anion, compound 20c, occurred near 640 nm in NaOH (pH 12). For compound 15a (transposed), the longest wavelength emission observed from the corresponding anion, compound 15h, occurred near 760 nm in NaOH.
Compound 15b also was characterized by its fluorescence emission spectrum and compared to C.SNARF-5. Fluorescence was measured using a 15 μM solution of compound 15b in a solution that was 90% aqueous, 10% DMSO. For C.SNARF-5, the longest wavelength emission observed from the anion occurred near 632 nm (Whitaker et al., Anal. Biochem. 1991, 194, 330-344). For compound 15b (transposed), the longest wavelength emission observed from the phenoxide occurred near 770 nm.
Fluorescence was measured using a 15 μM solution of compound 15d in a solution that was 90% aqueous, 10% DMSO. […] For compound 15d (transposed), the longest wavelength emission observed from the phenoxide occurred near 780 nm (NaOH, pH 12).
Compounds 20b and 15g also were characterized by their fluorescence emission spectra. Fluorescence was measured using 15 μM solutions of each compound in a solution that was 90% aqueous, 10% DMSO. For compound 20b, the longest wavelength emission observed from the cation occurred near 640 nm at pH 7.4. For compound 15g (transposed), the longest wavelength emission observed from the cation occurred near 770 nm at pH 7.4.

[3] = Quantum yield in 10:90 DMSO:aqueous solutions; type: physicochemical
Description: The quantum yield of yellow-orange emitting 16a was 0.4649, 40 times greater than the corresponding neutral compound 15a. It was slightly higher than the yellow-green emitting neutral compound 20a, and >2 times higher than orange-red emitting anion 20c. The compounds (7.5 μM) were analyzed in 10:90 DMSO:aqueous solutions. Fluorescence emission was readily visible in a darkened room when the solutions were excited from below with 3-watt megaMAX 505 nm ALS system. The emission-enhancing properties afforded through the combination of the 3-1 transposition and methylation is in contrast to previously reported methyl ethers of seminaphthofluorescein compounds.

[4] = Spectral properties of rhodamine bis-boronic acids and precursors in DMSO:buffer; type: physicochemical; design: Brightness: scale not given here; details: for Quenching of emission (PET) of the free boronic acid: DMSO buffer 1:9
Description: Characterization: The spectral properties of compounds 50-53 were determined. Absorption and fluorescence spectra of solutions of the rhodamine bis-boronic acids 51 and 53, and their respective precursors 50 and 52, are shown in FIGS. 27A-C (in DMSO:buffer 1:9) and 27D-F (DMSO:buffer 1:1). […] Excitation and emission spectra were normalized to their absorbance at the excitation wavelength, and are proportional to quantum yield.

[5] = Saccharide sensing, response to ribose; details: DMSO:buffer 1:1, entire concentration range
Description: (§1) Solvents including MeCN, MeOH, EtOH, DMSO and buffer were initially screened for sugar sensing. […] DMSO mixtures were chosen for further studies.
(§2) The final pH 7.4 phosphate buffer concentration was 12.5 mM.

[6] = Saccharide sensing, response to fructose
Description: as §1, §2

[7] = DMSO:buffer 1:1, pH 7.4 phosphate buffer 12.5 mM
[8] = DMSO:buffer 1:9, pH 7.4 phosphate buffer 12.5 mM

With COC(=O)c1ccccc1-c1c2ccc(=O)cc-2oc2c1ccc1cccc(O)c12 [Compound 15h] the “Red shift of absorption spectra from 3-1 transposition versus known regiochemistry” value ([1]; depending on the ionization state) was 50 nm, the Absorbance peak ([1]; NaOH (pH 12), anionic/phenoxide form) was 595 nm and 599 nm and the “Enhancement of the Stokes shift by 3-1 transposition” value [2] was “about 70 nm”. The Longest wavelength emission ([2]; NaOH (pH 12), anion/phenoxide) was 760 nm and the Quantum yield ([3]; aqueous solution) was “less than 1%”.

For COC(=O)c1ccccc1-c1c2ccc(=O)cc-2oc2c1ccc1cccc(OC)c12 [Compound 16a, methyl 2-(1-methoxy-10-oxo-10H-benzo[c]xanthen-7-yl)benzoate], the Quantum yield ([3]; 7.5 μM, 10:90 DMSO:aqueous) was 0.4649, the “Quantum yield relative to anion 20c” value ([3]; 7.5 μM, 10:90 DMSO:aqueous) was greater than 2 times and the “Quantum yield relative to neutral compound 15a” value ([3]; 7.5 μM, 10:90 DMSO:aqueous) was 40 times.

For O=C(O)c1ccccc1-c1c2ccc(=NCc3ccccc3B(O)O)cc-2oc2c1ccc1cc(NCc3ccccc3B(O)O)ccc12 [Compound 51, seminaphthorhodamine bis-boronic acid], the “Quenching of emission (PET) of the free boronic acid” value [4] was “slightly quenched”, the Brightness ([4]; DMSO:buffer 1:1) was 8037 and the Em ([4]; DMSO:buffer 1:1) was 643 nm. For the same compound, the Ex ([4]; DMSO:buffer 1:1) was 580 nm, the Q.Y. ([4]; DMSO:buffer 1:1) was 0.35 and the ε ([4]; DMSO:buffer 1:1) was 23096 M⁻¹ cm⁻¹. The Abs [4, 7] was 579 nm, the Brightness ([4]; DMSO:buffer 1:9) was 3032^e and the Em ([4]; DMSO:buffer 1:9) was 638 nm. It also gave an Ex ([4]; DMSO:buffer 1:9) of 568 nm, a Q.Y. ([4]; DMSO:buffer 1:9) of 0.15 and a ε ([4]; DMSO:buffer 1:9) of 20326 M⁻¹ cm⁻¹. For the same compound, the Abs [4, 8] was 560 nm, the Increase in absorbance [5] was “approximately 1.5 fold” and the Increase in fluorescence [5] was “approximately 1.5 fold”.

In the case of O=C(O)c1ccccc1-c1c2ccc3cc(NCc4ccccc4B(O)O)ccc3c2oc2c1ccc1cc(=NCc3ccccc3B(O)O)ccc12 [Compound 53, naphthorhodamine bis-boronic acid], the “Quenching of emission (PET) of the free boronic acid” value [4] is reported as “nearly completely quenched”, the Brightness ([4]; DMSO:buffer 1:1) is reported as 292^g and the Em ([4]; DMSO:buffer 1:1) is reported as 700 nm. The Ex ([4]; DMSO:buffer 1:1) was 624 nm, the Q.Y. ([4]; DMSO:buffer 1:1) was 0.18 and the ε ([4]; DMSO:buffer 1:1) was 1616 M⁻¹ cm⁻¹. The Abs [4, 7] was 616 nm, the Brightness ([4]; DMSO:buffer 1:9) was 43^d,f and the Em ([4]; DMSO:buffer 1:9) was 692 nm. The Ex ([4]; DMSO:buffer 1:9) was 612 nm, the Q.Y. ([4]; DMSO:buffer 1:9) was 0.004 and the ε ([4]; DMSO:buffer 1:9) was 10759 M⁻¹ cm⁻¹. For the same compound, the Abs [4, 8] was 628 nm, the “Estimated quantum yield after binding” value ([6]; DMSO:buffer 1:9) was 0.186 and the “Increase in absorbance at 630 nm” value ([6]; DMSO:buffer 1:9, highest concentration of fructose) was “less than 3 fold”.

— patent publication US9958451B2, “Near-infrared fluorescent dyes with large stokes shifts” (Portland State University, priority 2011, dated 2018)
